The record followed here is publication PMC4515095, “Structures of the Apo and FAD-Bound Forms of 2-Hydroxybiphenyl 3-monooxygenase (HbpA) Locate Activity Hotspots Identified by Using Directed Evolution” (Chembiochem, 2015).

Assay [1] has as its target T1, HbpA; 2-hydroxybiphenyl 3-monooxygenase (Pseudomonas nitroreducens, UniProt O06647).
T1 construct: full length with uncleaved N-terminal His6 tag, spacer and 3C site (21 residues longer than native); pET-YSBLIC-3C, E. coli BL21(DE3); homotetramer; tag not removed for crystals
T1 sequence (O06647 1-586): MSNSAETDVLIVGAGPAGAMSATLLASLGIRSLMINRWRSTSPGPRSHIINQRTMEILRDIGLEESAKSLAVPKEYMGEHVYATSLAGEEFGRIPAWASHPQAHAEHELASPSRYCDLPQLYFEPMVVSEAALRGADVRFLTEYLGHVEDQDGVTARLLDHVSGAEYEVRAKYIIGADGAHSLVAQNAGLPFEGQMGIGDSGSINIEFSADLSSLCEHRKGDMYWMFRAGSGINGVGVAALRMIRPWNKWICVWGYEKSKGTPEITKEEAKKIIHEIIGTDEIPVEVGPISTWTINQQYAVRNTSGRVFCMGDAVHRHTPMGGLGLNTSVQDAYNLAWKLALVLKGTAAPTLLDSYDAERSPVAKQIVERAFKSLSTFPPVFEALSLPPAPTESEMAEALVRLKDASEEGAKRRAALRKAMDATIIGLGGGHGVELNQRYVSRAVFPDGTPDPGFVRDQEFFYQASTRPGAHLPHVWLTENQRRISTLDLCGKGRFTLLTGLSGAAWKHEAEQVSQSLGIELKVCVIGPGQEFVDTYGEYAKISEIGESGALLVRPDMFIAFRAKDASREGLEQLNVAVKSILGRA
Kind of assay: X-ray crystal structure, […] Å, FAD soak. Format: binding. The note with it: crystals soaked in 1 mM FAD; flavin in the "in" position.

The target of assay [2] is 2-hydroxybiphenyl 3-monooxygenase (HbpA) from Pseudomonas azelaica HBP1 (Pseudomonas azelaica HBP1). Nature of the assay: crystal structure; P1 crystals with four molecules in the asymmetric unit (one tetramer); apo form and FAD complex (crystals soaked in 1 mM FAD); grown in 18 % PEG 3350, 0.15 M KSCN, Bis-Tris propane pH 5.5, protein 10 mg/mL.
For assay [3], the target named is T1, HbpA; 2-hydroxybiphenyl 3-monooxygenase. Nature of the assay: UV spectrophotometry of NADH oxidation at […] nm. It is filed as biochemical. The note with it: co-substrate NADH; air-saturated buffer; read-out: WT.

For `Cc1cc2nc3c(=O)[nH]c(=O)nc-3n(C[C@H](O)[C@H](O)[C@H](O)COP(=O)(O)OP(=O)(O)OC[C@H]3O[C@@H](n4cnc5c(N)ncnc54)[C@H](O)[C@@H]3O)c2cc1C` [FAD], in assay [1], the “X-ray crystal structure, 2.03 Å, FAD soak” value was “both apo-HbpA and the FAD complex have been deposited in the Protein Data Bank”.

In assay [2], “2-hydroxybiphenyl 3-monooxygenase (HbpA) from Pseudomonas azelaica HBP1 (enzyme)” yielded a stoichiometry N of 4.

As for `Oc1ccccc1-c1ccccc1` [2HBP], the Km in assay [3] worked out at 3.3 ± 0.2 µM.

A word on the stoichiometry N: it is the number of molecules, sites or subunits per partner or assembly.
